{"source": "patent US11584741B2", "about": "“Crystalline forms of 4-(5-(4,7-dimethylbenzofuran-2-yl)-1,2,4-oxadiazol-3-yl)benzoic acid and processes for their preparation” (King's College London, priority 2016, dated 2023)", "key": {"[1]": {"tested_on": "rats with severed and re-implanted sensory roots at the level of the left forelimb", "assay": "Sensory roots of four DRG severed and re-implanted into the spinal cord, sticky tape tests", "type": "in vivo", "details": "rat, after 5 weeks, 1 mg/kg three times a week", "experimental": "In another example of nerve injury, the four sensory roots from each of four DRG at the level of the left forelimb were severed and re-implanted into the spinal cord.\nThe results are illustrated in Borthwick et al., 2016. […] Rats were treated with 1 mg/kg of the test compound or vehicle two days after lesion, and then three times a week for the period of the experiment. Error bars show SEM. ***P<0.001, students t test, n=3-4 rats for each treatment group. At weeks 3, 4, and 5, there was significant difference between the rats treated with RARβ agonist as compared to rats treated with other retinoid agonists and vehicle."}, "cerebellar neurons": {"tested_on": "cerebellar neurons", "assay": "Neurite outgrowth assay, cerebellar neurons in the presence of myelin / MAG", "type": "cell-based, rat", "details": "cerebellar neurons grown in the presence of myelin", "experimental": "(§1) Cerebellar neurons isolated from post-natal day 3 rat pups were cultured over monolayers of parental 3T3 cells in control media, or media supplemented with a recombinant MAG-Fc chimera (R&D Systems) used at a final concentration of 20 μg/mL MAG-Fc. The monolayers were established for 24 hours prior to addition of the neurons and the co-cultures were maintained for approximately 21 hours. Following careful fixation with 4% paraformaldehyde, the neurons were immuno-stained with a GAP-43 antibody (from Graham Wilkin, Imperial College), dilution of 1:500, and the mean length of the longest neurite per cell was measured for approximately 120-150 neurons as previously described (see, e.g., Williams et al., 2005). DRG and cortical explants were obtained from adult rats, they were cultured in cellogen as previously described (see, e.g., Corcoran and Maden, 1999). Three explants per treatment were used. Neurite outgrowth was assessed 3 days later by immunohistochemistry with NF200 (Sigma, dilution of 1:200). The average lengths of the neurites were measured using image pro plus software. Media consisted of DMEM-F12 (Invitrogen) containing N2 (Invitrogen) supplemented with glucose (33 mM) and glutamine (2 mM)."}, "cortical explants": {"tested_on": "cortical explants", "assay": "Neurite outgrowth from cultured cortex of treated lesioned animals", "type": "cell-based, rat", "details": "cortex of lesioned rats treated in vivo; vehicle: did not grow", "experimental": "When pieces of cortex from these RARβ agonist treated animals were cultured, neurite outgrowth was observed, in contrast to cortex from control lesioned animals.\nas §1"}, "[2]": {"tested_on": "corticospinal tract (CST) of rats crushed at the C4 level", "assay": "Corticospinal tract (CST) crush at C4 in rats, agonist applied to the lateral ventricle", "type": "in vivo", "details": "rat", "experimental": "The results are illustrated in Borthwick et al., 2016.\nAll animal experiments were carried out under UK home office regulations. Dorsal column lesions were performed on adult male rats as previously described (see, e.g., Bradbury et al., 2002). […] The pumps were placed subcutaneously and connected to a brain infusion catheter (Alzet™), which was inserted into the lateral ventricle (Bregma coordinates: rostrocaudal: −0.8 mm, mediolateral: −1.5 mm and dorsoventral: −4.5 mm). […] The dose was based previous in vivo studies on activation of RARα and RARβ signalling in the adult rat brain (see, e.g., Goncalves et al., 2009). Animals which underwent behavioural studies and subsequent tracing (n=6 per treatment) were kept for six weeks before being sacrificed with a lethal injection of pentobarbital and transcardially perfused with 4% PFA. Dissected tissue (cervical and lumbar spinal cord) was processed for immunofluorescence.\nDescendent corticospinal tract axons were anterogradely traced after the dorsal column crush was performed by injected BDA (10% in PBS, Mw10K from Molecular Probes) into the motor cortex as previously described (see, e.g., Yip et al., 2006). Six injections were done in the right cortex (0.5 μL of BDA/injection point). Animals (n=6 per treatment) were perfused and the spinal cord was transferred to PBS (plus 0.1% sodium azide) and embedded in gelatin (10%, 300 bloom; Sigma, Poole, UK). Gelatin blocks were hardened in 4% paraformaldehyde, and 40 μm free-floating serial transverse sections were cut on a vibratome (Leica, Nussloch, Germany) and collected in 24-well plates containing PBS (plus 0.1% sodium azide).\nBDA was detected using the tyramide amplification kit (Perkin-Elmer) coupled with extra-avidin-FITC (Amersham Pharmacia Biotech, UK, 1:500). All BDA-labelled fibres observed within a 1-mm square grid were counted at measured intervals from 5 mm above to 5 mm below the lesion site by an experimenter, blinded to treatment.\nCST neurons were labelled by retrograde tracing injecting 2 μL of 5% Fluorogold (FG, Molecular Probes) 2 mm deep into the cervical spinal cord (C3-C4) at a rate of 0.5 μL/minute (n=3 rats per group). In sham animals, FG was injected 0.5 mm bilateral to the medial line of spinal cord (1 μL per side), and in lesioned animals FG (2 μL) was injected into the injury. After 14 days, the cortices were fixed for 2 hours in 4% paraformaldehyde (PFA), embedded in OCT compound and stored frozen. Sagittal sections (12 μm) were cut and 4 sequential slides containing 2 sections from lateral 3.4-3.9 mm were taken for analysis (see, e.g., Paxinos and Watson, 2002).\nImmunohistochemistry was carried out using anti-rabbit phospho-Akt (Cell Signalling technology, dilution of 1:100). Secondary antibody used was anti-rabbit Cy3 conjugated (Jackson, used at 1:1000). Images were captured at 100× magnification using a Roperscientific digital camera.\nThe behavioural tests were carried out as previously described (see, e.g., Bradbury et al., 2002). Rats (n=6 per treatment group) were first trained for two weeks before surgery to perform grid walk and beam walk; they were then tested by an observer blinded to the experimental treatment once a week for five weeks after lesion."}, "[3]": {"tested_on": "corticospinal tract (CST) of rats crushed at the C4 level", "details": "in vivo; Agudo et al., 2010; cited from earlier work"}, "[4]": {"details": "i.c.v. 180 ng/kg/day for 14 days"}}, "data": [{"smiles": "COc1ccc(-c2ccc3cc(C(=O)O)ccc3c2)cc1C1(C)CCCCC1", "note": "[CD2019, 6-(4-methoxy-3-(1-methylcyclohexyl)phenyl)-2-naphthalenecarboxylic acid]", "values": [{"measurement": "Behavioural test (sticky tape)", "setting": "[1]", "result": "performed as well as non-lesioned animals"}, {"measurement": "Neurite outgrowth", "setting": "cerebellar neurons", "result": "causes the outgrowth of neurites"}, {"measurement": "Axon growth from cultured adult cortex of treated animals", "setting": "cortical explants", "result": "did grow"}, {"measurement": "Behavioural tests (grid and beam task)", "setting": "[2]; after 5 weeks", "result": "performed as well as non-lesioned animals"}, {"measurement": "BDA-labelled CST axons crossing the lesion site", "setting": "[2]; after 5 weeks, vs vehicle (no axons across)", "result": "many axons were observed crossing the injury site"}, {"measurement": "Time to functional recovery, beam task", "setting": "[2]; [4]", "result": 2, "unit": "weeks post lesion"}, {"measurement": "Time to functional recovery, grid task", "setting": "[2]; [4]", "result": 4, "unit": "weeks post lesion"}, {"measurement": "RARβ2 expression in the CST neuronal cell bodies", "setting": "[2]; lateral ventricle for 2 weeks", "result": "upregulation of RARβ2"}, {"measurement": "Phospho AKT in the injured CST neurons", "setting": "[3]", "result": "induced"}]}]}
